Reference: PMC5845353, “The selective cathepsin K inhibitor MIV-711 attenuates joint pathology in experimental animal models of osteoarthritis” (Journal of Translational Medicine, 2018)
Several values for one entry are separate records, joined by “and”; a condition that tells them apart may be missing. Equal values may be shown once.

What was measured:
[1] = tested on: dogs subjected to partial medial meniscectomy; experiment: Dog partial medial meniscectomy study, collagen damage width; assay type: in vivo
Description: Collagen damage across the medial tibial plateau (most severely affected section) was quantified by measuring the total width of the following:
Any damage (fibrillation ranging from superficial to full thickness loss)
Severe damage (total or near total loss of collagen to tidemark, >90% thickness)
Marked damage (extends through 61-90% of the cartilage thickness)
Moderate damage (extends thru 31-60% of the cartilage thickness)
Mild damage (extends through 11-30% of the cartilage thickness)
Minimal damage (very superficial, affecting upper 10% only)
Single clefts were arbitrarily given a measure of 100 µm and the number of clefts was multiplied by 100 if several are present.

[2] = tested on: dogs subjected to partial medial meniscectomy; experiment: Dog partial medial meniscectomy study, microscopic lesion width and depth ratio; assay type: in vivo
Protocol: Measurements of width of total lesion of any type (chondrocyte death, cloning, fibrillation, proteoglycan loss) were taken across the tibial and femoral surfaces to give a total lesion width. Significant lesion width (matrix loss extending beyond superficial degeneration; i.e., lesions consisting of changes greater than just proteoglycan loss) was also determined in an attempt to convey possible treatment differences based on evaluation of more serious and permanent/irreversible cartilage matrix changes. Multiple depth measurements in areas of greatest lesion severity were taken for each of the 4 quadrants in each of the 3 anterior to posterior sections. These consisted of measurements taken from the surface (or estimated original surface when severe degenerative changes are present) to the point where cartilage appeared normal. A second measurement was taken in this same area to the depth of the tidemark so that the number expressed is a ratio of lesion depth vs. depth of tidemark. The mean values for each quadrant (medial to lateral) for the 3 anterior to posterior sections were determined as well as an overall mean for the joint. In this measurement, the minor changes consisting of proteoglycan loss only are not measured and only lesions with definite chondrocyte loss and sometimes fibrillation are included. This parameter should reflect a similar result to the significant width measurement as it is an indicator of beneficial effects on the more severe pathology.

[3] = tested on: bone resorption biomarker HP-1; experiment: Urinary HP-1 (bone resorption biomarker) in ACLT rabbits; assay type: in vivo, rabbit
Protocol: Starting 1 week after sham operation or ACLT, animals were dosed daily for 7 weeks by oral gavage with either MIV-711 (synthesized by Medivir and given as a suspension in 1% Methocel A4C in water) or vehicle (1% Methocel A4C in water) at a dose volume of 4 mL/kg. The four treatment groups (n = 7 in each group) were: (1) sham + vehicle; (2) ACLT + vehicle; (3) ACLT + MIV-711, 30 µmol/kg (low dose) and (4) ACLT + MIV-711, 100 µmol/kg (high dose).
Urine was collected in the morning from all animals for biomarker measurements before surgery, before dosing on Day 1, Day 10 and during Week 4 and Week 7. The urine was stored frozen (− 70 to − 80 °C) until analysis.
In rabbits, conventional CTX-I assays to assess bone resorption cannot be used due to species differences. Instead, urinary helical peptide (HP-1) concentrations were measured in rabbits using the MicroVue Helical Peptide kit (Ref: 8022) from Quidel (San Diego, CA) according to the instructions supplied by the manufacturer. In dogs, urinary levels of C-terminal telopeptide of collagen type I (CTX-I) were measured using a commercially available kit (Urine BETA CrossLaps ELISA, Ref: AC-05F1, IDS Nordic Bioscience Diagnostics A/S). In rabbits and dogs, urinary concentrations of C-terminal telopeptide of collagen type II (CTX-II) were measured using the Urine CartiLaps EIA kit (Ref: AC-10F1) from Immunodiagnostics Systems (IDS, Herlev, Denmark) according to the instructions supplied by the manufacturer. In dogs, CTX-II levels were also measured in synovial fluid. Before ELISA analysis, 95 µL of synovial fluid was mixed with 5 µL of hyaluronidase (100 U/mL, Sigma, H-3884). The mixture was incubated overnight at 35 °C. The mixture was then used to measure CTX-II levels (Serum Pre-Clinical CartiLaps ELISA, Ref: AC-08F1, IDS Nordic Bioscience Diagnostics A/S). The creatinine levels in urine were determined at Swedish University of Agricultural Sciences (Uppsala, Sweden), using the enzymatic assay (Cat No. 8L24-01) on the Abbott system Architect c4000.

[4] = individual animals of MIV-711 group
[5] = dog, individual animals of MIV-711 group
[6] = dog, mean of zones, individual animals of MIV-711 group
[7] = dog, mean of zones, versus Vehicle
[8] = individual dogs of MIV-711 group, mean of the 4 quadrants
[9] = individual dogs of MIV-711 group, width of any cartilage lesion, mean of 3 sections
[10] = individual dogs of MIV-711 group, width of degeneration with score of 1 or greater

## C#C[C@@H]1CN(C(=O)[C@H](CC(C)C)NC(=O)c2ccc(-c3nc(N4CCN(C)CC4)sc3F)cc2)[C@@H]2C(=O)CO[C@H]12 [MIV-711]
[1]; group Mean
  collagen degeneration, percentage of total width: Mild: 17%
  collagen degeneration, percentage of total width: Mild+ Minimal: 28%
  collagen degeneration, percentage of total width: Minimal: 11%
  collagen degeneration, percentage of total width: Moderate+ Mild+ Minimal: 30%
  collagen degeneration, percentage of total width: Normal: 70%
  collagen degeneration, percentage of total width: Severe: 0%
  collagen degeneration, percentage of total width: Severe+ Marked: 0%
  collagen degeneration, percentage of total width: Severe+ Marked+ Moderate: 2%
  collagen degeneration, percentage of total width: Severe+ Marked+ Moderate+ Mild: 19%
  collagen degeneration, percentage of total width: Total: 30%
[1]; [4]
  collagen degeneration, percentage of total width: Mild: 10% and 26% and 11% and 4% and 31% and 27% and 13% and 25% and 30% and 14% and 8% and 16%
  collagen degeneration, percentage of total width: Mild+ Minimal: 18% and 31% and 23% and 14% and 35% and 39% and 20% and 24% and 34% and 58% and 25% and 16% and 28% and 30%
  collagen degeneration, percentage of total width: Minimal: 9% and 5% and 12% and 10% and 4% and 7% and 8% and 27% and 2% and 20% and 14%
  collagen degeneration, percentage of total width: Moderate+ Mild+ Minimal: 19% and 31% and 23% and 24% and 35% and 39% and 27% and 34% and 58% and 29% and 18% and 28% and 26% and 30%
  collagen degeneration, percentage of total width: Normal: 81% and 69% and 77% and 76% and 65% and 61% and 73% and 62% and 42% and 71% and 82% and 72% and 74% and 70%
  collagen degeneration, percentage of total width: Severe: 0%
  collagen degeneration, percentage of total width: Severe+ Marked: 0%
  collagen degeneration, percentage of total width: Severe+ Marked+ Moderate: 1% and 0% and 10% and 7% and 4% and 2% and 3%
  collagen degeneration, percentage of total width: Severe+ Marked+ Moderate+ Mild: 11% and 26% and 14% and 31% and 27% and 20% and 13% and 25% and 30% and 17% and 16% and 8% and 19%
  collagen degeneration, percentage of total width: Total: 19% and 31% and 23% and 24% and 35% and 39% and 27% and 38% and 58% and 29% and 18% and 28% and 26% and 30%
[1]; versus Vehicle
  % inhibition, collagen degeneration width: Mild: -2%
  % inhibition, collagen degeneration width: Mild+ Minimal: 12%
  % inhibition, collagen degeneration width: Minimal: 28%
  % inhibition, collagen degeneration width: Moderate+ Mild+ Minimal: 12%
  % inhibition, collagen degeneration width: Normal: -6%
  % inhibition, collagen degeneration width: Severe+ Marked+ Moderate: 21%
  % inhibition, collagen degeneration width: Severe+ Marked+ Moderate+ Mild: 1%
  % inhibition, collagen degeneration width: Total: 12%
[2]; MIV-711 group mean
  Femur Cartilage Degeneration Width Sig: 994.3 µm
  Femur Cartilage Degeneration Width Total: 3661.0 µm
  Femur Mean DRAMC (Depth Ratio Any Matrix Change): 0.084
  Tibia Cartilage Degeneration Width Sig: 2105.6 µm
  Tibia Cartilage Degeneration Width Total: 7336.0 µm
  Tibia Mean DRAMC (Depth Ratio Any Matrix Change): 0.13
[2]; MIV-711 group vs vehicle
  % inhibition, Femur Cartilage Degeneration Width Sig: 11%
  % inhibition, Femur Cartilage Degeneration Width Total: 13%
  % inhibition, Femur Mean DRAMC: -9%
  % inhibition, Tibia Cartilage Degeneration Width Sig: 5%
  % inhibition, Tibia Cartilage Degeneration Width Total: 0%
  % inhibition, Tibia Mean DRAMC: 17%
[2]; dog, group Mean
  Femur Depth Ratio Any Matrix Change Zone 1: 0.15
  Femur Depth Ratio Any Matrix Change Zone 2: 0.13
  Femur Depth Ratio Any Matrix Change Zone 3: 0.05
  Femur Depth Ratio Any Matrix Change Zone 4: 0.01
  Tibia Depth Ratio Any Matrix Change Zone 1: 0.05
  Tibia Depth Ratio Any Matrix Change Zone 2: 0.31
  Tibia Depth Ratio Any Matrix Change Zone 3: 0.11
  Tibia Depth Ratio Any Matrix Change Zone 4: 0.04
[2]; [5]
  Femur Depth Ratio Any Matrix Change Zone 1: 0.08 and 0.07 and 0.01 and 0.42 and 0.19 and 0.10 and 0.09 and 0.22 and 0.50 and 0.06 and 0.23
  Femur Depth Ratio Any Matrix Change Zone 2: 0.13 and 0.16 and 0.00 and 0.36 and 0.08 and 0.10 and 0.01 and 0.06 and 0.09 and 0.48 and 0.05 and 0.24
  Femur Depth Ratio Any Matrix Change Zone 3: 0.04 and 0.03 and 0.00 and 0.33 and 0.01 and 0.02 and 0.21
  Femur Depth Ratio Any Matrix Change Zone 4: 0.00 and 0.01 and 0.02 and 0.06
  Tibia Depth Ratio Any Matrix Change Zone 1: 0.06 and 0.08 and 0.01 and 0.09 and 0.03 and 0.13 and 0.00 and 0.15 and 0.11
  Tibia Depth Ratio Any Matrix Change Zone 2: 0.28 and 0.23 and 0.35 and 0.24 and 0.27 and 0.36 and 0.39 and 0.22 and 0.47 and 0.33 and 0.30 and 0.19
  Tibia Depth Ratio Any Matrix Change Zone 3: 0.14 and 0.11 and 0.18 and 0.08 and 0.15 and 0.07 and 0.24 and 0.06 and 0.04 and 0.19 and 0.03 and 0.05
  Tibia Depth Ratio Any Matrix Change Zone 4: 0.05 and 0.04 and 0.00 and 0.07 and 0.06 and 0.01 and 0.03 and 0.02
[2]; dog, mean of zones, group Mean
  Femur Depth Ratio Any Matrix Change Mean: 0.08
  Tibia Depth Ratio Any Matrix Change Mean: 0.13
[2]; [6]
  Femur Depth Ratio Any Matrix Change Mean: 0.06 and 0.07 and 0.00 and 0.28 and 0.04 and 0.03 and 0.01 and 0.08 and 0.31 and 0.12
  Tibia Depth Ratio Any Matrix Change Mean: 0.13 and 0.11 and 0.17 and 0.09 and 0.15 and 0.16 and 0.07 and 0.14 and 0.20
[2]; [7]
  % inhibition, Femur Depth Ratio Any Matrix Change Mean: -9%
  % inhibition, Tibia Depth Ratio Any Matrix Change Mean: 17%
[2]; dog, versus Vehicle
  % inhibition, Femur Depth Ratio Any Matrix Change Zone 1: -39%
  % inhibition, Femur Depth Ratio Any Matrix Change Zone 2: 10%
  % inhibition, Femur Depth Ratio Any Matrix Change Zone 3: -12%
  % inhibition, Femur Depth Ratio Any Matrix Change Zone 4: 44%
  % inhibition, Tibia Depth Ratio Any Matrix Change Zone 1: 55%
  % inhibition, Tibia Depth Ratio Any Matrix Change Zone 2: -2%
  % inhibition, Tibia Depth Ratio Any Matrix Change Zone 3: 23%
  % inhibition, Tibia Depth Ratio Any Matrix Change Zone 4: 19%
[2]; [8]
  Femur Mean DRAMC (Depth Ratio Any Matrix Change): 0.04 and 0.06 and 0.07 and 0.00 and 0.28 and 0.03 and 0.01 and 0.08 and 0.31 and 0.12
  Tibia Mean DRAMC (Depth Ratio Any Matrix Change): 0.07 and 0.13 and 0.11 and 0.17 and 0.09 and 0.15 and 0.16 and 0.14 and 0.20
[2]; [9]
  Femur Cartilage Degeneration Width Total: 3885 µm and 4200 µm and 4410 µm and 630 µm and 5040 µm and 3780 µm and 2310 µm and 3990 µm and 5880 µm and 2730 µm and 3675 µm
  Tibia Cartilage Degeneration Width Total: 6405 µm and 6510 µm and 8190 µm and 7560 µm and 8400 µm and 7980 µm and 6195 µm and 6930 µm and 6615 µm and 7245 µm and 7770 µm
[2]; [10]
  Femur Cartilage Degeneration Width Sig: 0 µm and 735 µm and 1260 µm and 3465 µm and 200 µm and 968 µm and 420 µm and 1890 µm and 733 µm and 815 µm and 3360 µm and 1068 µm
  Tibia Cartilage Degeneration Width Sig: 1638 µm and 1890 µm and 2310 µm and 1470 µm and 2520 µm and 2205 µm and 1155 µm and 3150 µm and 1575 µm and 1218 µm and 2163 µm and 4515 µm and 1785 µm
[3]; ACLT rabbits, over doses 30 and 100 µmol/kg and time points
  HP-1 levels decreased by up to, vs ACLT vehicle controls: up to 72%
[3]; after 4 weeks, 30 µmol/kg
  urinary HP-1 levels reduced by, vs ACLT rabbits treated with vehicle: 43%
[3]; after 4 weeks, 100 µmol/kg
  urinary HP-1 levels reduced by, vs ACLT rabbits treated with vehicle: 68%
[3]; after 7 weeks, 30 µmol/kg (p > 0.05)
  urinary HP-1 levels reduced by, vs ACLT rabbits treated with vehicle: 25%
[3]; after 7 weeks, 100 µmol/kg
  urinary HP-1 levels reduced by, vs ACLT rabbits treated with vehicle: 51%
[3]; after 10 days of dosing, 30 µmol/kg
  urinary HP-1 levels reduced by, vs ACLT rabbits treated with vehicle: 45%
[3]; after 10 days of dosing, 100 µmol/kg
  urinary HP-1 levels reduced by, vs ACLT rabbits treated with vehicle: 72%
